Results: patent US9421276B2, “Clickable polyoxetane carrier for drug delivery” (VIRGINIA COMMONWEALTH UNIVERSITY, priority 2012, dated 2016)

Experiments:
[1] = system: Human glioma U1242/luc-GFP cells; assay: Cell toxicity assay (luciferase assay); format: cell-based; settings: 48 h, carriers at concentrations up to 33 μM
Experimental: Cell toxicity assays. Human glioma U1242/luc-GFP cells stably expressing the reporter luciferase were exposed to various CPT equivalent concentrations of polymer-CPT conjugates or polymer control samples (n=4) in a 96-well microtiter plate for 48 h followed by luciferase assay to assess survival of cells.

[2] = physiological pH, background statement; cited from earlier work

For `CC[C@@]1(O)C(=O)OCc2c1cc1n(c2=O)Cc2cc3ccccc3nc2-1` [CPT, 20(S)-Camptothecin], the cytotoxicity [1] is given as “dose-dependent toxic” and the “stability of lactone form” value [2] is given as “rapidly transforms into the carboxylate form”.
